Active and inactive are the calls of the source. No rule for the calls is given here.
Tested on: CCRIS mutagenicity, Ames/micronucleus/aberration tests
Assay: CCRIS mutagenicity studies
[1] = Test System: AMES SALMONELLA TYPHIMURIUM, Strain/Indicator: TA98, Metabolic Activation: NONE, Method: PREINCUBATION
[2] = Test System: AMES SALMONELLA TYPHIMURIUM, Strain/Indicator: TA98, Metabolic Activation: RAT LIVER S-9, PHENOBARBITAL AND BETA-NAPHTHOFLAVONE, Method: PREINCUBATION
[3] = Test System: AMES SALMONELLA TYPHIMURIUM, Strain/Indicator: TA100, Metabolic Activation: NONE, Method: PREINCUBATION
[4] = Test System: AMES SALMONELLA TYPHIMURIUM, Strain/Indicator: TA100, Metabolic Activation: RAT LIVER S-9, PHENOBARBITAL AND BETA-NAPHTHOFLAVONE, Method: PREINCUBATION
[5] = Test System: AMES SALMONELLA TYPHIMURIUM, Strain/Indicator: TA1535, Metabolic Activation: NONE, Method: PREINCUBATION
[6] = Test System: AMES SALMONELLA TYPHIMURIUM, Strain/Indicator: TA1535, Metabolic Activation: RAT LIVER S-9, PHENOBARBITAL AND BETA-NAPHTHOFLAVONE, Method: PREINCUBATION
[7] = Test System: AMES SALMONELLA TYPHIMURIUM, Strain/Indicator: TA1537, Metabolic Activation: NONE, Method: PREINCUBATION
[8] = Test System: AMES SALMONELLA TYPHIMURIUM, Strain/Indicator: TA1537, Metabolic Activation: RAT LIVER S-9, PHENOBARBITAL AND BETA-NAPHTHOFLAVONE, Method: PREINCUBATION
[9] = Test System: AMES SALMONELLA TYPHIMURIUM, Strain/Indicator: TA1538, Metabolic Activation: NONE, Method: PREINCUBATION
[10] = Test System: AMES SALMONELLA TYPHIMURIUM, Strain/Indicator: TA100, Metabolic Activation: RAT, LIVER, S-9, AROCLOR 1254, Method: STANDARD PLATE
[11] = Test System: AMES SALMONELLA TYPHIMURIUM, Strain/Indicator: TA98, Metabolic Activation: RAT, LIVER, S-9, KC 500, Method: PREINCUBATION
[12] = Test System: AMES SALMONELLA TYPHIMURIUM, Strain/Indicator: TA100, Metabolic Activation: RAT, LIVER, S-9, KC 500, Method: PREINCUBATION
[13] = Test System: AMES SALMONELLA TYPHIMURIUM, Strain/Indicator: TA1535, Metabolic Activation: RAT, LIVER, S-9, KC 500, Method: PREINCUBATION
[14] = Test System: AMES SALMONELLA TYPHIMURIUM, Strain/Indicator: TA1537, Metabolic Activation: RAT, LIVER, S-9, KC 500, Method: PREINCUBATION
[15] = Test System: AMES SALMONELLA TYPHIMURIUM, Strain/Indicator: TA1538, Metabolic Activation: RAT, LIVER, S-9, KC 500, Method: PREINCUBATION
[16] = Test System: E. COLI, Strain/Indicator: WP2 UVRA, Metabolic Activation: NONE, Method: PREINCUBATION
[17] = Test System: E. COLI, Strain/Indicator: WP2 UVRA, Metabolic Activation: RAT, LIVER, S-9, KC 500, Method: PREINCUBATION
[18] = Test System: AMES SALMONELLA TYPHIMURIUM, Strain/Indicator: TA98, Metabolic Activation: NONE, Method: STANDARD PLATE
[19] = Test System: AMES SALMONELLA TYPHIMURIUM, Strain/Indicator: TA98, Metabolic Activation: RAT, LIVER, S-9, AROCLOR 1254, Method: STANDARD PLATE
[20] = Test System: AMES SALMONELLA TYPHIMURIUM, Strain/Indicator: TA100, Metabolic Activation: NONE, Method: STANDARD PLATE

Compound: COc1ccc(C=O)cc1
- mutagenic call (Test System: AMES SALMONELLA TYPHIMURIUM, Strain/Indicator: TA97, Metabolic Activation: NONE, Method: PREINCUBATION): inactive; negative
- mutagenic call (Test System: AMES SALMONELLA TYPHIMURIUM, Strain/Indicator: TA97, Metabolic Activation: RAT, LIVER, S-9, AROCLOR 1254, Method: PREINCUBATION): inactive; negative
- mutagenic call [1]: inactive; negative
- mutagenic call [2]: inactive; negative
- mutagenic call [3]: inactive; negative
- mutagenic call [4]: inactive; negative
- mutagenic call (Test System: AMES SALMONELLA TYPHIMURIUM, Strain/Indicator: TA102, Metabolic Activation: NONE, Method: PREINCUBATION): inactive; negative
- mutagenic call (Test System: AMES SALMONELLA TYPHIMURIUM, Strain/Indicator: TA102, Metabolic Activation: RAT, LIVER, S-9, AROCLOR 1254, Method: PREINCUBATION): inactive; negative
- mutagenic call [5]: inactive; negative
- mutagenic call [6]: inactive; negative
- mutagenic call [7]: inactive; negative
- mutagenic call [8]: inactive; negative
- mutagenic call [9]: inactive; negative
- mutagenic call (Test System: AMES SALMONELLA TYPHIMURIUM, Strain/Indicator: TA1538, Metabolic Activation: RAT LIVER S-9, PHENOBARBITAL AND BETA-NAPHTHOFLAVONE, Method: PREINCUBATION): inactive; negative
- mutagenic call (Test System: E. COLI, Strain/Indicator: WP2UVRA, Metabolic Activation: NONE, Method: PREINCUBATION): inactive; negative
- mutagenic call (Test System: E. COLI, Strain/Indicator: WP2UVRA, Metabolic Activation: RAT LIVER S-9, PHENOBARBITAL AND BETA-NAPHTHOFLAVONE, Method: PREINCUBATION): inactive; negative
- mutagenic call (Test System: MOUSE LYMPHOMA, Strain/Indicator: L5178Y (TK+/TK-), Metabolic Activation: NONE, Method: SUSPENSION/PLATE): active; positive
- mutagenic call (Test System: MOUSE LYMPHOMA, Strain/Indicator: L5178Y (TK+/TK-), Metabolic Activation: RAT, LIVER, S-9, AROCLOR 1254, Method: SUSPENSION/PLATE): active; positive. reevaluation of results: positive
- mutagenic call (Test System: Mouse lymphoma, Strain/Indicator: L5178Y (tk+/tk-), Metabolic Activation: None, Method: Suspension/plate): inactive; negative

Compound: CC1c2cc(F)ccc2-c2ccc(F)cc21
- mutagenic call [10]: active; positive

Compound: O=[N+]([O-])c1ccccc1SS/C(Cl)=C(\Cl)C(Cl)=C(Cl)Cl
- mutagenic call (Test System: AMES SALMONELLA TYPHIMURIUM, Strain/Indicator: TA100(DNP6), Metabolic Activation: NONE, Method: PREINCUBATION): active; positive
- mutagenic call (Test System: AMES SALMONELLA TYPHIMURIUM, Strain/Indicator: TA100(NR), Metabolic Activation: NONE, Method: PREINCUBATION): active; positive

Compound: COC(=O)CC(C)=O
- mutagenic call (End Point: In vitro chromosomal aberrations, Test System: Chinese hamster lung (CHL/IU) cells, Metabolic Activation: None): inactive; negative
- mutagenic call (End Point: In vitro chromosomal aberrations, Test System: Chinese hamster lung (CHL/IU) cells, Metabolic Activation: Rat, Liver, S9, Phenobarbital and 5,6-benzoflavone): active; positive (ploidy)
- mutagenic call [1]: inactive; negative
- mutagenic call [2]: inactive; negative
- mutagenic call [11]: inactive; negative
- mutagenic call [3]: inactive; negative
- mutagenic call [4]: inactive; negative
- mutagenic call [12]: inactive; negative
- mutagenic call [5]: inactive; negative
- mutagenic call [6]: inactive; negative
- mutagenic call [13]: inactive; negative
- mutagenic call [7]: inactive; negative
- mutagenic call [8]: inactive; negative
- mutagenic call [14]: inactive; negative
- mutagenic call [9]: inactive; negative
- mutagenic call [15]: inactive; negative
- mutagenic call [16]: inactive; negative
- mutagenic call [17]: inactive; negative
- mutagenic call (Test System: E.COLI, Strain/Indicator: WP2UVRA/PKM101, Metabolic Activation: NONE, Method: PREINCUBATION): inactive; negative
- mutagenic call (Test System: E.COLI, Strain/Indicator: WP2UVRA/PKM101, Metabolic Activation: RAT LIVER S-9, PHENOBARBITAL AND BETA-NAPHTHOFLAVONE, Method: PREINCUBATION): inactive; negative

Compound: O=C(O)CCCCCCCCC(=O)O
- mutagenic call [1]: inactive; negative
- mutagenic call [2]: inactive; negative
- mutagenic call [11]: inactive; negative
- mutagenic call [3]: inactive; negative
- mutagenic call [4]: inactive; negative
- mutagenic call [12]: inactive; negative
- mutagenic call [5]: inactive; negative
- mutagenic call [6]: inactive; negative
- mutagenic call [13]: inactive; negative
- mutagenic call [7]: inactive; negative
- mutagenic call [8]: inactive; negative
- mutagenic call [14]: inactive; negative
- mutagenic call [9]: inactive; negative
- mutagenic call [15]: inactive; negative
- mutagenic call (Test System: E. COLI, Strain/Indicator: WP2UVRA/PKM101, Metabolic Activation: NONE, Method: PREINCUBATION): inactive; negative
- mutagenic call (Test System: E. COLI, Strain/Indicator: WP2UVRA/PKM101, Metabolic Activation: RAT LIVER S-9, PHENOBARBITAL AND BETA-NAPHTHOFLAVONE, Method: PREINCUBATION): inactive; negative
- mutagenic call [16]: inactive; negative
- mutagenic call [17]: inactive; negative

Compound: CCOC(=O)c1[nH]c2ccccc2c1N=Cc1ccc(C)cc1
- mutagenic call (Test System: AMES SALMONELLA TYPHIMURIUM, Strain/Indicator: TA97, Metabolic Activation: NONE, Method: STANDARD PLATE): inactive; negative
- mutagenic call (Test System: AMES SALMONELLA TYPHIMURIUM, Strain/Indicator: TA97, Metabolic Activation: RAT, LIVER, S-9, AROCLOR 1254, Method: STANDARD PLATE): inactive; negative
- mutagenic call [18]: inactive; negative
- mutagenic call [19]: inactive; negative
- mutagenic call [20]: inactive; negative
- mutagenic call [10]: inactive; negative
- mutagenic call (Test System: AMES SALMONELLA TYPHIMURIUM, Strain/Indicator: TA102, Metabolic Activation: NONE, Method: STANDARD PLATE): inactive; negative
- mutagenic call (Test System: AMES SALMONELLA TYPHIMURIUM, Strain/Indicator: TA102, Metabolic Activation: RAT, LIVER, S-9, AROCLOR 1254, Method: STANDARD PLATE): inactive; negative

Compound: CN(C)c1ccc(/C=C/C(=O)c2ccccc2)cc1
- mutagenic call [18]: inactive; negative
- mutagenic call [19]: inactive; negative
- mutagenic call [20]: inactive; negative
- mutagenic call [10]: inactive; negative

Compound: Nc1cc(N)cc(Cl)c1
- mutagenic call (End Point: IN VITRO CHROMOSOMAL ABERRATIONS, Test System: CHL CELLS, Metabolic Activation: RAT, LIVER, S-9, SODIUM PHENOBARBITAL AND 5,6-BENZOFLAVONE): active; positive (structural changes)
- mutagenic call (Test System: UDS RODENT HEPATOCYTES, Strain/Indicator: THY INCORP (NON-S-PHASE), Metabolic Activation: NONE, Method: AUTORADIOGRAPHY): active; positive
